{
  "source": "patent US20150141460A1",
  "about": "“Anti-inflammatory Compositions” (Cambridge Enterprise Limited, priority 2007, published 2015)",
  "key": {"[1]": {"molecular_target": "target receptor (site of specific interaction of BN83250) (Homo sapiens, UniProt P30874)", "sequence (P30874 whole entry)": "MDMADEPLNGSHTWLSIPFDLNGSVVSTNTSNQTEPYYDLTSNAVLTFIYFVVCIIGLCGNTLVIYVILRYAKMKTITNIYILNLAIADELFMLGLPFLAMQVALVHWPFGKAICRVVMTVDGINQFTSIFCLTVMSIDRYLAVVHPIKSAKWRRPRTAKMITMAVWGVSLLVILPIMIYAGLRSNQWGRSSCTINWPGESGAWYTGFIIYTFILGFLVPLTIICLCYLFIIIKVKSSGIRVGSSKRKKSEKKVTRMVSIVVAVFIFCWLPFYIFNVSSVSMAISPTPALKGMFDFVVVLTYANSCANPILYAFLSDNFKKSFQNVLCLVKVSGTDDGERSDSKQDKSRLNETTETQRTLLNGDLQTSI", "test": "Competition for binding of [3H]-BN83250 to the target receptor on human myelomonocytic cell line", "conditions": "competition with 10 nM [3H]-BN83250; non-linear modelling", "procedure": "In this experiment, each reaction received 10 nM labelled BN83250 (a lactam BSCI which binds to the same receptor as compound (I′)), together with various competitors (100 μM-1 pM). The total specific binding was the amount displaced by a large excess (100 μM). Each bar represents the mean of three replicate determinations, with whiskers representing SEM. The Y-axis represents the radioactive counts bound in each experiments in units of counts per minute (cpm). The upper dashed line represents the total binding under the conditions of the experiment, while the lower dashed line represents the non-specific binding; the specific binding is represented by the distance between the dashed lines.\nThe general pharmacology of the five compounds was assessed, both against the specific target receptor, and against a wide variety of other receptors, many related in structure to the target receptor. Specific binding to the target receptor was assessed by competition for the binding of [^3H]-BN83250 (BN83250 is (S)-3-(2′,2′-dimethyldodecanoylamino)-caprolactam; Fox et al. J Med Chem. […]; 48(3):867-74; an agent known to bind to the same target receptor as the lactam BSCIs disclosed here). Binding to non-target receptors was assessed by competition for the binding of various specific radioligands for other receptors which are well known in the art. […]"}, "[2]": {"system": "CD4+ splenocytes (IFN-γ / IL-4)", "test": "Ovalbumin-induced model of asthma, T-helper cell polarisation (Th1/Th2 ratio) of CD4+ splenocytes by flow cytometry", "assay_type": "in vivo, Brown Norway rats", "conditions": "0.3 mg/kg daily via the oral route", "source_text": "Bars represent mean Th1/Th2 ratios, shown on the Y-axis, for groups of 10 animals, whiskers represent SEM; * p<0.05 versus unchallenged rats; † p<0.05 versus sensitised and challenged rats, in both cases using Student's unpaired t-test assuming equal variance, with two tails). All rats (except the ‘BN rats’ group, which was not exposed to ovalbumin) received the same sensitisation and challenge regimen, but were either treated with vehicle only (‘Sensitised+vehicle’), or with compound (I′) at 0.3 mg/kg bodyweight or with monteleukast (‘Singulair™’) at 30 mg/kg bodyweight, all administered daily by oral gavage.\nAdult Brown Norway rats (200-300 g body weight; n=10 per group) were sensitised by a single intraperitoneal injection of 0.1 mg Ovalbumin on day 0. Each rat then received an intratracheal challenge with a solution of 1% ovalbumin (w/v) on day 8, and with 2% ovalbumin (w/v) on days 15, 18 and 21. The animals were then sacrificed 3 hours after the final challenge on day 21. […]\nThe spleen was also removed from each […] and placed in RPMI+10% FCS+antibiotics. […] The resulting cell suspension was then centrifuged (328 g; 5 mins) and washed in RPMI+10% FCS+antibiotics, before being resuspended in fresh media and counted using a haemocytometer. […]"}},
  "data": [
    {"smiles": "CC(C)(C)C(=O)N[C@H]1CCCNC1=O", "note": "[Compound (I′), (S)-3-(2′,2′-dimethylpropanoylamino)-tetrahydropyridin-2-one]", "values": [
      {"measurement": "Ka at target receptor (pM)", "setting": "[1]", "result": 50, "unit": "pM"},
      {"measurement": "effect on Th2 polarisation (Th1/Th2 ratio)", "setting": "[2]", "result": "significantly reversed the Th2 polarisation"}
    ]}
  ]
}
